Data reported in patent US20210352950A1 (priority 2019, published 2021).

Experiments:
[1] = test system: Phosphorylated histone H2AX; experiment: Histone H2AX phosphorylation (DNA damage, western blot); assay type: cell-based, human and murine; conditions: HCT116 and CT26.WT, STS 24 hours + vitamin C 350 μM 3 hours
Procedure: (§1) Cells were washed twice in ice-cold PBS and lysates were prepared in RIPA lysis buffer (50 mM Tris HCl pH 7.4, 150 mM NaCl, 1% NP-40, 0.25% deoxycholic acid, 1 mM EDTA) supplemented with protease and phosphatase inhibitors (protease inhibitor cocktail set III EDTA-free, Calbiochem, Cat. #: S39134; PhosStop, Roche), Samples were sonicated (bioruptor plus, diogenode) and centrifuged at 16.1 g for 30 minutes at 4° C. Tumor tissues were collected and snap frozen in liquid nitrogen immediately after mice were sacrificed, and stored in -80° C. until use. […] Protein concentrations were determined by BCA assay (Thermo Fisher Scientific, Cat. #: 23225). Proteins were diluted in 1× Laemmli sample buffer, boiled at 95° C. for 5 minutes and 30 μg of total proteins were separated by using SDS-PAGE and analyzed by western blotting by standard procedures. […] Membranes were incubated overnight at 4° C. with gentle shaking with the following primary antibodies: […] ADI-SPA894), FTH (1:1000, Cell Signaling, Cat. #: 3998), AMPK (1:1000, Cell Signaling, Cat. #: 2532), phospho-[…] AMPK (1:1000, Cell Signaling, Cat. #: 2535), eIF2a (1:1000, Cell signaling, Cat. #: 5324), phospho […] eIF2a (1:1000, Cell signaling, Cat. #: 3597), AKT (1:1000, Cell Signaling, Cat. #: 9272), phospho-[…] […] Bands intensity was quantified with NIH Image J software (version 1.48v).

phospho-AKT (serine 473) = experiment: AKT phosphorylation (western blot); assay type: cell-based, human; conditions: HCT116, STS 24 hours + vitamin C 350 μM 3 hours
Procedure: as §1

ROS in HCT116 cells = experiment: CellROX reactive oxygen species measurement; assay type: cell-based, human; conditions: HCT116, vitamin C 1 mM as single intervention, 30 minutes
Procedure: Intracellular reactive-oxygen species (ROS) were measured using the CellROX oxidative stress reagents (Life Technologies, Cat. #: 10422). CellROX fluorogenic probe is designed to measure reactive-oxygen species (ROS) in live cells. […] For ROS measurement, cells were seeded in 10 cm petri dish (4×10^5 cells in CTR medium). After 24 hours cells were rinsed twice in 1×PBS and CTR or STS medium was added. 24 hours later, cells were trypsinized, resuspended in their respective media, and treated with 1 mM sodium ascorbate and 1 μM CellROX deep red reagent in the dark, for 30 minutes at 37° C. and 5% CO2. Then, fluorescence was immediately analyzed by flow cytometry (Attune NxT flow cytometer). Data were processed by Kaluza analysis software (Beckman coulter, version 2.0). Data were expressed as fold change of the median fluorescent intensity (MFI) of each treated sample versus the MFI of control sample.

FTH = FTH protein expression in cells (western blot); assay type: cell-based, human and murine; conditions: HCT116, CT26.WT, STS 24 hours + vitamin C 350 μM 3 hours
Procedure: as §1

[2] = test system: phospho-eIF2a (serine 51); experiment: eIF2a phosphorylation (western blot); assay type: cell-based, human; conditions: HCT116, STS 24 hours + vitamin C 350 μM 3 hours
Procedure: as §1

[3] = test system: HCT116 subcutaneous tumors; experiment: HCT116 xenograft tumor volume; assay type: in vivo, mouse; conditions: NSG mice

O=C1O[C@H]([C@@H](O)CO)C(O)=C1O [vitamin C, ascorbic acid]
DNA damage measured by phosphorylation level of histone H2AX [1]: strongly induced DNA damage | AKT phosphorylation level (downregulated upon STS) (phospho-AKT (serine 473)): potentiated even further | ROS levels (ROS in HCT116 cells): increase ROS levels | FTH protein expression level (FTH): reduces FTH protein expression level | eIF2a phosphorylation level [2]: significantly induced the phosphorylation level | tumor progression, single interventions ([3]; 3-days FMD every week or vitamin C 4 g/kg i.p. twice a day): delayed tumor progression | anti-cancer effect combined with fasting cycles ([3]; 3 cycles of fasting (2 days, water only) + vitamin C 4 g/kg i.p. twice a day): significantly enhanced
